Where a name gives a salt, the structure may show the parent alone.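 Test compounds were applied to cells in 96-well plates for 48 hours at 5 doses. Here, GI50 denotes the concentration required for 50% inhibition of growth.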 The source made the active and inactive calls. Cut-off read from the data, not from the text of the source: active = GI50 up to about 1.1 µM and inactive = higher. Residues, ends and D or L forms follow the SMILES beside them. *: point of attachment. Boc = CC(C)(C)OC(=O)*
Legend:
Assay in all cases: inhibition of tumour cell growth, NCI panel, 48 h
M14 = system: M14
HCT-116 = system: HCT-116
HT-29 = system: HT-29
EKVX = system: EKVX
DU-145 = system: DU-145
NCI-H23 = system: NCI-H23
UO-31 = system: UO-31
UACC-257 = system: UACC-257
HL-60 = system: HL-60
MDA-MB-435 = system: MDA-MB-435
SK-OV-3 = system: SK-OV-3
RPMI-8226 = system: RPMI-8226
MCF7 = system: MCF7
OVCAR-3 = system: OVCAR-3
BT-549 = system: BT-549
U-251 = system: U-251
HOP-62 = system: HOP-62
OVCAR-4 = system: OVCAR-4

Compound	GI50 (M14)	GI50 (HCT-116)	GI50 (HT-29)	GI50 (EKVX)	GI50 (DU-145)	GI50 (NCI-H23)	GI50 (UO-31)	GI50 (UACC-257)	GI50 (HL-60)	GI50 (MDA-MB-435)	GI50 (SK-OV-3)	GI50 (RPMI-8226)	GI50 (MCF7)	GI50 (OVCAR-3)	GI50 (BT-549)	GI50 (U-251)	GI50 (HOP-62)	GI50 (OVCAR-4)
O=[N+]([O-])c1ccc2sc(/C=N/c3ccccn3)cc2c1	> 100 µM (inactive)	38.4 µM (inactive)	> 100 µM (inactive)	69 µM (inactive)	77.6 µM (inactive)	98.2 µM (inactive)	> 100 µM (inactive)	99.8 µM (inactive)	28.5 µM (inactive)	71.6 µM (inactive)	> 100 µM (inactive)	22.6 µM (inactive)	30.4 µM (inactive)	41.8 µM (inactive)	85.1 µM (inactive)	33.7 µM (inactive)	> 100 µM (inactive)	
CC1(C)C2CCC(N)(C2)C1N (centres undefined)	> 100 µM (inactive)	> 100 µM (inactive)		> 100 µM (inactive)	> 100 µM (inactive)	> 100 µM (inactive)	> 100 µM (inactive)	> 100 µM (inactive)	22.3 µM (inactive)	> 100 µM (inactive)	> 100 µM (inactive)	> 100 µM (inactive)	> 100 µM (inactive)	> 100 µM (inactive)	> 100 µM (inactive)	> 100 µM (inactive)	> 100 µM (inactive)	> 100 µM (inactive)
O=C1Nc2cc(Cl)ccc2C(=O)N2CCC[C@@H]12	> 100 µM (inactive)	> 100 µM (inactive)	> 100 µM (inactive)	> 100 µM (inactive)	> 100 µM (inactive)	> 100 µM (inactive)	> 100 µM (inactive)	> 100 µM (inactive)	> 100 µM (inactive)	> 100 µM (inactive)	> 100 µM (inactive)	> 100 µM (inactive)	> 100 µM (inactive)		> 100 µM (inactive)	> 100 µM (inactive)	> 100 µM (inactive)	> 100 µM (inactive)
S=C(N/N=C(/c1ccccc1)c1ccccn1)N1CCCCCC1	0.001 µM (active)	0.01 µM (active)	< 0.0141 µM (active)	< 0.0329 µM (active)	0.369 µM (active)	0.0538 µM (active)	0.0904 µM (active)	< 0.015 µM (active)	< 0.0103 µM (active)	0.0843 µM (active)	< 0.027 µM (active)		0.0569 µM (active)	0.01 µM (active)	0.564 µM (active)	< 0.0252 µM (active)	0.0514 µM (active)	0.127 µM (active)
O=c1cc(NCC2CCCCC2)[nH]c(=O)[nH]1	> 100 µM (inactive)	> 100 µM (inactive)		> 100 µM (inactive)	> 100 µM (inactive)	> 100 µM (inactive)	> 100 µM (inactive)	> 100 µM (inactive)	> 100 µM (inactive)	> 100 µM (inactive)		> 100 µM (inactive)	> 100 µM (inactive)	> 100 µM (inactive)	> 100 µM (inactive)	> 100 µM (inactive)	> 100 µM (inactive)	> 100 µM (inactive)
CC1=CC(O)C(C(O)(C(F)(F)F)C(F)(F)F)C(C)(C)C1 (centres undefined)	< 0.001 µM (active)	> 10 µM (inactive)	> 10 µM (inactive)	> 10 µM (inactive)	> 10 µM (inactive)	> 10 µM (inactive)		> 10 µM (inactive)	> 10 µM (inactive)	< 0.001 µM (active)	> 10 µM (inactive)	> 10 µM (inactive)	> 10 µM (inactive)	> 10 µM (inactive)	> 10 µM (inactive)	> 10 µM (inactive)	> 10 µM (inactive)	> 10 µM (inactive)
c1ccc2c(c1)ccc1nc3ccccn3c12	> 100 µM (inactive)		> 100 µM (inactive)	68.5 µM (inactive)	> 100 µM (inactive)	> 100 µM (inactive)	70.6 µM (inactive)	> 100 µM (inactive)	> 100 µM (inactive)	> 100 µM (inactive)	35.2 µM (inactive)	> 100 µM (inactive)	> 100 µM (inactive)	> 100 µM (inactive)	> 100 µM (inactive)	> 100 µM (inactive)	> 100 µM (inactive)	
S=P(C1CCCCC1)(C1CCCCC1)C(c1cccnc1)N1CCCC1 (centres undefined)	18.4 µM (inactive)	18.5 µM (inactive)	33.8 µM (inactive)	19.1 µM (inactive)	16.1 µM (inactive)	18.7 µM (inactive)		> 100 µM (inactive)	18.1 µM (inactive)	18.4 µM (inactive)	81.8 µM (inactive)	15.5 µM (inactive)	> 100 µM (inactive)	92.5 µM (inactive)	18.5 µM (inactive)	20.2 µM (inactive)	16.3 µM (inactive)	21.5 µM (inactive)
NNC(=O)CC(=O)Nc1ccc(C(=O)O)cc1		> 100 µM (inactive)	> 100 µM (inactive)	> 100 µM (inactive)	> 100 µM (inactive)	> 100 µM (inactive)	> 100 µM (inactive)	> 100 µM (inactive)	> 100 µM (inactive)	> 100 µM (inactive)	> 100 µM (inactive)	> 100 µM (inactive)	> 100 µM (inactive)	> 100 µM (inactive)	> 100 µM (inactive)	> 100 µM (inactive)	> 100 µM (inactive)	> 100 µM (inactive)
O=C(CN1C(=O)c2ccccc2C1=O)OCC1CCCN2CCCCC12 (centres undefined)		> 100 µM (inactive)	> 100 µM (inactive)	> 100 µM (inactive)	> 100 µM (inactive)	> 100 µM (inactive)	> 100 µM (inactive)	> 100 µM (inactive)	> 100 µM (inactive)	> 100 µM (inactive)	> 100 µM (inactive)	> 100 µM (inactive)	> 100 µM (inactive)		> 100 µM (inactive)	> 100 µM (inactive)		> 100 µM (inactive)
COC(=O)C(Cc1c[nH]c2ccccc12)NC(=O)C(Cc1c[nH]c2ccccc12)NC(=O)C(Cc1c[nH]c2ccccc12)NC(=O)C(Cc1c[nH]c2ccccc12)NC(=O)OC(C)(C)C (centres undefined) (Boc-WWWW-OMe; configuration not given here)	30.1 µM (inactive)	13.9 µM (inactive)	22.9 µM (inactive)		43.2 µM (inactive)	25.1 µM (inactive)	89.7 µM (inactive)	79.4 µM (inactive)	6.34 µM (inactive)	23.4 µM (inactive)		3.95 µM (inactive)	< 0.01 µM (active)	15.1 µM (inactive)	17.9 µM (inactive)	14.4 µM (inactive)	25.6 µM (inactive)	48.5 µM (inactive)
NCCCCN [PUTRESCINE HYDROCHLORIDE]	> 100 µM (inactive)	> 100 µM (inactive)	> 100 µM (inactive)	> 100 µM (inactive)	> 100 µM (inactive)	> 100 µM (inactive)	> 100 µM (inactive)	> 100 µM (inactive)	> 100 µM (inactive)	8.36 µM (inactive)	> 100 µM (inactive)		> 100 µM (inactive)	> 100 µM (inactive)	> 100 µM (inactive)	> 100 µM (inactive)	> 100 µM (inactive)	19.4 µM (inactive)

— ChEMBL document CHEMBL1201862, “PubChem BioAssay data set” (2004)
